Each block holds one compound with its values, some of them ahead of it.
Columns and labels:
[1] = test system: lysosomal peptidase / purified lysosomal enzymes; experiment: hydrolysis under conditions of lysosomal digestion (release of free drug); assay type: in vitro ADME; details: for daunorubicine regenerated by the action of lysosomal peptidase: pH 6.0, aminoacid linked to daunorubicine
Description: According to the invention, the arm is of peptidic nature and contains preferably 3 or 4 aminoacids. It is particularly important that the aminoacid being bound to the free amino function of the drug through its carboxylic function, has an asymmetric carbon atom and has the L-configuration because the peptidases or the lysosomal hydrolases only cut the peptidic bonds in the alpha position with respect to an asymmetric carbon. The aminoacid composing the peptidic spacer arm could be selected among the following L-aminoacids: α-aminobutyric acid, γ-aminobutyric acid, ε-aminocaproic acid, arginine, asparagine, aspartic acid, cysteic acid, cysteine, glutamine, glutamic acid, glycine, histidine, 4-hydroxyproline, […]. Of particular interest to play this function is L-leucine. […] In addition, a much higher rate of release of the free drug is obtained when the number of aminoacids making up the peptidic arm increases and may be as high as 78% when the intermediate peptide is made of a sequence of 4 aminoacids. Thus according to the invention, the intermediate "spacer arm" preferably is represented by the sequence

[2] = test system: L 1210 leukemia; experiment: mice inoculated intraperitoneally with L 1210 leukemia, treated by intraperitoneal route; assay type: in vivo; details: for activity against L 1210 leukemia in mice compared with daunorubicine or L-leucyl-daunorubicine: i.p. inoculation, i.p. treatment; for activity against L 1210 leukemia in mice compared with daunorubicine or L-leucyl-daunorubicine / toxicity compared with daunorubicine or L-leucyl-daunorubicine: equal doses expressed as daunorubicine; for toxicity compared with daunorubicine or L-leucyl-daunorubicine: mice, i.p.
[3] = test system: L 1210 leukemia cells; experiment: in vitro growth inhibition of L 1210 leukemia cells; assay type: cell-based; details: 72 hours of culture; concentration near 10 μg/cm^3
Procedure: Thus the products in which the drug is daunorubicine inhibit in vitro the growth of cancerous cells such as cells of L 1210 leukemia in an appropriate medium. For example, after 72 hours of culture, BSA-succinyl-L-Ala-L-Leu-L-Ala-L-Leu-Daunorubicine at a concentration near 10 μg/cm^3, causes 90% of inhibition of the growth of L 1210 leukemia cells.

[4] = stability in the serum; assay type: in vitro ADME
Description: According to the invention, the arm is of peptidic nature and contains preferably 3 or 4 aminoacids. It is particularly important that the aminoacid being bound to the free amino function of the drug through its carboxylic function, has an asymmetric carbon atom and has the L-configuration because the peptidases or the lysosomal hydrolases only cut the peptidic bonds in the alpha position with respect to an asymmetric carbon. The aminoacid composing the peptidic spacer arm could be selected among the following L-aminoacids: α-aminobutyric acid, γ-aminobutyric acid, ε-aminocaproic acid, arginine, asparagine, aspartic acid, cysteic acid, cysteine, glutamine, glutamic acid, glycine, histidine, 4-hydroxyproline, […]. Of particular interest to play this function is L-leucine.

[5] = 5 mg/kg expressed as daunorubicine, mice with L 1210 leukemia

regeneration of the free drug when submitted to lysosomal digestion [1]: regenerate rapidly the free drug
stability in the serum [4]: stable in the serum
Compound: COc1cccc2c1C(=O)c1c(O)c3c(c(O)c1C2=O)C[C@@](O)(C(=O)CO)C[C@@H]3O[C@H]1C[C@H](NC(=O)[C@@H](N)CC(C)C)[C@H](O)[C@H](C)O1 [N-L-leucyl-doxorubicine]

regeneration of the free drug when submitted to lysosomal digestion [1]: regenerate rapidly the free drug
stability in the serum [4]: stable in the serum
Compound: COc1cc(NC(C)CCCNC(=O)[C@@H](N)CC(C)C)c2ncccc2c1 (stereo partly drawn) [N-L-leucyl-primaquine]

regeneration of the free drug when submitted to lysosomal digestion [1]: regenerate rapidly the free drug
free daunorubicine released ([1]; two hours hydrolysis at pH 4.5, lysosomal digestion): 65%
free daunorubicine released ([1]; two hours hydrolysis at pH 6.0, lysosomal digestion): 90%
stability in the serum [4]: stable in the serum
Compound: COc1cccc2c1C(=O)c1c(O)c3c(c(O)c1C2=O)C[C@@](O)(C(C)=O)C[C@@H]3O[C@H]1C[C@H](NC(=O)[C@@H](N)CC(C)C)[C@H](O)[C@H](C)O1 [N-L-leucyl-daunorubicine]

Further lines, the compound ahead of its results:

Compound: N[C@@H](Cc1ccc(O)cc1)C(=O)O [L-tyrosine]
daunorubicine regenerated by the action of lysosomal peptidase [1]: 70%

Compound: BSA-succinyl-L-Ala-L-Leu-L-Ala-L-Leu-Daunorubicine: succinyl-alanyl-leucyl-alanyl-leucyl-daunorubicine coupled with bovine serum albumin
activity against L 1210 leukemia in mice compared with daunorubicine or L-leucyl-daunorubicine [2]: markedly better activity than that of daunorubicine or L-leucyl-daunorubicine
toxicity compared with daunorubicine or L-leucyl-daunorubicine [2]: less toxicity
inhibition of the growth of L 1210 leukemia cells [3]: 90%

Compound: fetuine-succinyl-L-Ala-L-Leu-L-Ala-L-Leu-daunorubicine: succinylated fetuine coupled with L-alanyl-L-leucyl-L-alanyl-L-leucyl-daunorubicine
increase of life span (ILS) [2, 5]: ~194%
surviving mice after 30 days of observation ([2]; 5 mg/kg expressed as daunorubicine, of 10 mice): 8
activity against L 1210 leukemia in mice compared with daunorubicine or L-leucyl-daunorubicine [2]: markedly better activity than that of daunorubicine or L-leucyl-daunorubicine
toxicity compared with daunorubicine or L-leucyl-daunorubicine [2]: less toxicity

Compound: CC[C@H](C)[C@H](N)C(=O)O [L-isoleucine]
daunorubicine regenerated by the action of lysosomal peptidase [1]: 60%

Compound: COc1cccc2c1C(=O)c1c(O)c3c(c(O)c1C2=O)C[C@@](O)(C(C)=O)C[C@@H]3O[C@H]1C[C@H](N)[C@H](O)[C@H](C)O1 [daunorubicine, reference compound]
increase of life span (ILS) [2, 5]: about 7%
toxicity at the dose ([2]; 5 mg/kg, mice with L 1210 leukemia): already toxic at that dose
